According to patent US6274715A, “Tricyclic erythromycin derivatives” (priority 1997, dated 2001):

Key:
Assay type in all cases: cell-based
[1] = system: MYCOBACTERIUM SMEGMATIS ATCC 114; assay: In vitro antibacterial activity, MIC, BHI agar dilution; conditions: M. smegmatis ATCC 114, unit assumed
ESCHERICHIA COLI SS = assay: as above; conditions: E. coli SS, unit assumed
PSEUDOMONAS CEPACIA 296I = assay: as above; conditions: P. cepacia 296I, unit assumed
[2] = system: STAPHYLOCOCCUS AUREUS NCTC10649M; assay: as above; conditions: S. aureus NCTC10649M, unit assumed
[3] = system: KLEBSIELLA PNEUMONIAE ATCC 8045; assay: as above; conditions: K. pneumoniae ATCC 8045, unit assumed
[4] = system: PSEUDOMONAS AERUGINOSA DPHD-2862; assay: as above; conditions: P. aeruginosa DPHD-2862, unit assumed
[5] = system: STAPHYLOCOCCUS AUREUS A-5278; assay: as above; conditions: S. aureus A-5278, unit assumed
[6] = system: PSEUDOMONAS AERUGINOSA K799/61; assay: as above; conditions: P. aeruginosa K799/61, unit assumed
[7] = system: STAPHYLOCOCCUS AUREUS ATCC 6538P; assay: as above; conditions: S. aureus ATCC 6538P, 35-37° C., 20 to 24 hours, unit assumed
[8] = system: STREPTOCOCCUS BOVIS A-5169; assay: as above; conditions: S. bovis A-5169, unit assumed
[9] = system: STREPTOCOCCUS PYOGENES PIU 2548; assay: as above; conditions: S. pyogenes PIU 2548, unit assumed
CANDIDA ALBICANS CCH 442 = assay: as above; conditions: C. albicans CCH 442, unit assumed
[10] = system: PSEUDOMONAS AERUGINOSA 5007; assay: as above; conditions: P. aeruginosa 5007, unit assumed
ESCHERICHIA COLI JUHL = conditions: E. coli JUHL; BHI agar; unit assumed
[11] = system: PROVIDENCIA STUARTII CMX 640; conditions: P. stuartii CMX 640; BHI agar; unit assumed
ESCHERICHIA COLI KNK 437 = conditions: E. coli KNK 437; BHI agar; unit assumed
[12] = system: STAPHYLOCOCCUS AUREUS A5177; assay: In vitro antibacterial activity, MIC, BHI agar dilution; conditions: S. aureus A5177, unit assumed
[13] = system: STREPTOCOCCUS PYOGENES 930; assay: as above; conditions: S. pyogenes 930, unit assumed
STR[…] 508 = assay: as above; conditions: S. agalactiae CMX 508, unit assumed
How it was run: (§1)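 MIC was read visually as the lowest drug level with no growth, a slight haze or sparsely isolated colonies relative to a compound-free growth control. Organisms were spotted at 1:100 dilution (1:10 for slow-growing strains) onto Brain Heart Infusion agar containing serial compound dilutions and incubated 20 to 24 hours at 35-37° C.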

EN[…] ATCC 8043 = assay: as above; conditions: E. faecium ATCC 8043, unit assumed
How it was run: as §1

M[…] ATCC 9341 = assay: as above; conditions: M. luteus ATCC 9341, unit assumed
How it was run: as §1

M[…] ATCC 4698 = assay: as above; conditions: M. luteus ATCC 4698, unit assumed
How it was run: as §1

[14] = system: STAPHYLOCOCCUS AUREUS 1775; assay: as above; conditions: S. aureus 1775, unit assumed
[15] = system: PSEUDOMONAS AERUGINOSA BMH10; assay: as above; conditions: P. aeruginosa BMH10, unit assumed
[16] = system: ENTEROBACTER AEROGENES ATCC 13048; assay: as above; conditions: E. aerogenes ATCC 13048, unit assumed
[17] = system: STAPHYLOCOCCUS EPIDERMIDIS 3519; conditions: S. epidermidis 3519; BHI agar; unit assumed
ESCHERICHIA COLI H560 = assay: In vitro antibacterial activity, MIC, BHI agar dilution; conditions: E. coli H560, unit assumed
[18] = system: STAPHYLOCOCCUS AUREUS CMX 642A; assay: as above; conditions: S. aureus CMX 642A, unit assumed
[19] = system: PSEUDOMONAS AERUGINOSA K799/WT; assay: as above; conditions: P. aeruginosa K799/WT, unit assumed
ESCHERICHIA COLI DC-2 = assay: as above; conditions: E. coli DC-2, unit assumed
[20] = system: STREPTOCOCCUS PYOGENES EES61; assay: as above; conditions: S. pyogenes EES61, unit assumed
[21] = system: ACINETOBACTER CALCOACETICUS CMX 669; assay: as above; conditions: A. calcoaceticus CMX 669, unit assumed
[22] = system: STAPHYLOCOCCUS AUREUS CMX 553; assay: as above; conditions: S. aureus CMX 553, unit assumed
[23] = system: PSEUDOMONAS AERUGINOSA DPHD-5263; assay: as above; conditions: P. aeruginosa DPHD-5263, unit assumed
H. Influenza Dill AMP R = assay: In vitro antibacterial activity against H. Influenza Dill AMP R, MIC; conditions: separate assay, unit assumed
Experimental: Representative compounds of the present invention were assayed in vitro for antibacterial activity as follows: Twelve petri dishes containing successive aqueous dilutions of the test compound mixed with 10 mL of sterilized Brain Heart Infusion (BHI) agar (Difco 0418-01-5) were prepared. Each plate was inoculated with 1:100 (or 1:10 for slow-growing strains, such as Micrococcus and Streptococcus) dilutions of up to 32 different microorganisms, using a Steers replicator block. The inoculated plates were incubated at 35-37° C. for 20 to 24 hours. In addition, a control plate, using BHI agar containing no test compound, was prepared and incubated at the beginning and end of each test.
After incubation, each plate was visually inspected. The minimum inhibitory concentration (MIC) was defmed as the lowest concentration of drug yielding no growth, a slight haze, or sparsely isolated colonies on the inoculum spot as compared to the growth control.
In a separate assay representative compounds of the invention were assayed in vitro for antibacterial activity against the H. Influenza Dill AMP R strain, according to the protocol described above.

Measured: MIC

CC[C@H]1OC(=O)[C@H](C)C(=O)[C@H](C)[C@@H](O[C@@H]2O[C@H](C)C[C@H](N(C)C)[C@H]2O)[C@](C)(OC)C[C@@H](C)C2=N[C@H](COCc3cccc(Br)c3)CN3C(=O)O[C@@]1(C)[C@H]3[C@H]2C [Example 105]
25 µg/mL: [13]
0.02 µg/mL: [2]
1.56 µg/mL: [6]
100 µg/mL: PSEUDOMONAS CEPACIA 296I | [5] | CANDIDA ALBICANS CCH 442 | ESCHERICHIA COLI JUHL | [14] | ESCHERICHIA COLI DC-2 | [21]
0.01 µg/mL: M[…] ATCC 4698
50 µg/mL: ESCHERICHIA COLI H560
0.78 µg/mL: [1]
≤ 0.005 µg/mL: [8] | STR[…] 508 | EN[…] ATCC 8043 | M[…] ATCC 9341 | [20]
0.05 µg/mL: [7] | [9] | [12] | [17] | [18] | [22]
0.39 µg/mL: ESCHERICHIA COLI SS
not listed: H. Influenza Dill AMP R
> 100 µg/mL: all other assays above

CC[C@H]1OC(=O)[C@H](C)C(=O)[C@H](C)[C@@H](O[C@@H]2O[C@H](C)C[C@H](N(C)C)[C@H]2O)[C@](C)(OC)C[C@@H](C)C2=NC3CN(CCc4ccccc4[N+](=O)[O-])CC3N3C(=O)O[C@@]1(C)[C@H]3[C@H]2C (stereo partly shown) [Example 119]
0.39 µg/mL: [7] | [12] | M[…] ATCC 4698 | [17] | [18]
0.78 µg/mL: [1] | ESCHERICHIA COLI SS | [6] | [9]
100 µg/mL: ESCHERICHIA COLI JUHL | [21]
0.2 µg/mL: [2] | [22]
0.05 µg/mL: M[…] ATCC 9341
0.1 µg/mL: EN[…] ATCC 8043
0.02 µg/mL: [8] | STR[…] 508 | [20]
not listed: H. Influenza Dill AMP R
> 100 µg/mL: all other assays above

CC[C@H]1OC(=O)[C@H](C)C(=O)[C@H](C)[C@@H](O[C@@H]2O[C@H](C)C[C@H](N(C)C)[C@H]2O)[C@](C)(OC)C[C@@H](C)C2=NCC(CNCc3ccccc3)N3C(=O)O[C@@]1(C)[C@H]3[C@H]2C (stereo partly shown) [Example 131]
4 µg/mL: H. Influenza Dill AMP R
0.2 µg/mL: ESCHERICHIA COLI SS | M[…] ATCC 4698
0.1 µg/mL: EN[…] ATCC 8043
50 µg/mL: ESCHERICHIA COLI JUHL | [16] | [19]
0.05 µg/mL: STR[…] 508
0.02 µg/mL: M[…] ATCC 9341 | [20]
0.39 µg/mL: [2] | [7] | [12] | [17] | [18] | [22]
12.5 µg/mL: ESCHERICHIA COLI H560
1.56 µg/mL: [1]
25 µg/mL: PSEUDOMONAS CEPACIA 296I | ESCHERICHIA COLI KNK 437 | ESCHERICHIA COLI DC-2
0.78 µg/mL: [6] | [9]
not listed: [3] | [8] | [21]
> 100 µg/mL: all other assays above
